Four substances from patent publication US20180185448A1, “COMPOSITION AND METHOD FOR INDUCING ANTI-INFLAMMATORY RESPONSE” (Vital Therapies, Inc., priority 2015, published 2018) can be followed below.

“Also recorded” adds a separate entry of the source.

Assay [1] deals with monolayer C3A cells. Kind of assay: Monolayer C3A cells incubated with inflammatory cytokines (IL-6, IL-1β, TNF-α); secreted factors assayed in conditioned media by ELISA/multiplex. Format: cell-based, human. The settings on record: for AAT secretion at 54 h: 54 h compared with 24 h; for TNF-α secretion: 24 and 48 h; for IL-10 secretion / IL-10 secretion at 48 hr: 10 ng/mL; for IL-10 secretion: 24 h vs controls; for IL-10 secretion at 48 hr: 48 hr compared with 24 h. The procedure: (§1) Conditioned media from C3A cells of an active cartridge of a treatment system of the disclosure were assayed for APP, cytokines, and other mediators that affect inflammation using singleplex ELISA kits (R&D Systems, abcam), chemiluminescent multiplex array kits (Aushon) and/or contracted services (Myriad Rules Based Medicine). Inflammatory cytokines reported to be present in hepatitis patient serum (IL-6 [0, 1, 10, 100 ng/mL]±IL-1β [0, 1, 10, 100 ng/mL]) were incubated with monolayer, or C3A cells recovered from the treatment system, for 24 or 54 h, and conditioned media were assayed for the APP IL-1 receptor antagonist (IL-1Ra), alpha-1-antitrypsin (AAT), and albumin. Lipopolysaccharide (LPS) (0, 0.01, 0.1, 1, 10 EU/mL) was incubated with monolayer C3A cells for 24 h and assayed for APP.
Conditioned media from active cartridges including qualified C3A cells were assayed for APP, cytokines, and other mediators that affect inflammation. Inflammatory cytokines present in patient serum (IL-6±IL-1β) were incubated with monolayer, or C3A cells recovered from the system, for 24 or 54 h and media assayed for IL-1 receptor antagonist (IL-1Ra) and alpha-1-antitrypsin (AAT).
(§2) C3A cells of the invention were plated in monolayer and incubated with LPS or with inflammatory cytokines (IL-6, IL-1β, and/or TNF-α) for 24, 48, or 54 h. Cytokines were dosed individually or in combination at 0, 1, 10, or 100 ng/mL as indicated in each figure. Separate C3A cells were incubated with LPS at 0, 0.01, 0.1, 1, or 10 EU/mL for 24 h.
(§3) Additionally, intact C3A tissue (C3A cells cultured three-dimensionally between polysulfone hollow fibers) was excised from C3A cell cartridges and dosed in conjunction with 10 ng/mL IL-1β and 10 ng/mL IL-6 for 24 h. The supernatants from these monolayer C3A cell and ELAD C3A tissue experiments were assayed for IL-1Ra, AAT, IL-10, or albumin via in-house and commercial ELISA kits (R&D Systems, abcam), contracted services for multiplex ELISAs (Myriad), or chemiluminescent multiplex assay kits (Aushon).
On the technique in general: In an ELISA, binding on a coated surface is turned into a signal by an enzyme label.

Assay [2] relates to monolayer C3A cells. Briefly: Monolayer C3A cells incubated with LPS for 24 h; IL-1Ra and AAT assayed in media. The assay is classed as cell-based, human. As to the method:
as §1, §2, §3

The mark [3] stands for this setting: Example 1, monolayer C3A cultures.
Setting [4] is: Example 3, monolayer C3A cells 1.3×10^5 cells/cm, 24 and 54 h, n=3.
[5] abbreviates: Examples 1-2, monolayer C3A cells, 24 h, single replicates of pooled triplicate wells.
Where [6] appears, read: Examples 1-2, monolayer C3A cells.
Setting [7] is: FIG. 18 experiment, monolayer C3A cells 2.6×10^5 cells/cm^2, TNF-α 1, 10 or 100 ng/mL, IL-1β 10 ng/mL.
[8] abbreviates: monolayer C3A cells 2.6×10^5 cells/cm^2.
Setting [9] is: monolayer C3A cells, IL-6 ± IL-1β 1-100 ng/mL, 24 h (or time not stated).
Setting [10] is: Example 3, monolayer C3A cells 1.3×10^5 cells/cm^2.
[11] abbreviates: Example 3, monolayer, 24, 48 hr.
The mark [12] stands for this setting: Example 3, monolayer, 24 hr, 48 hr.

Consider Interleukin-1 beta [IL-1β], for which, in the assay with monolayer C3A cells [1] (setting [3]), the G-CSF increase is recorded as 50 fold. For the same substance, in the assay on monolayer C3A cells [1] (setting [3]), the IL-8 increase is reported as 2,000 fold. Further, in the assay on monolayer C3A cells [1] (setting [3]), the SCF increase is on record as 100 fold. Further, the TNFα increase in the assay on monolayer C3A cells [1] (setting [3]) worked out at 25 fold. For the same substance, the AAT secretion entry is on record as “no apparent effect; also recorded: not affected” in the assay with monolayer C3A cells [1] (setting [4]); “dose-dependent upregulation; also recorded: upregulated” with monolayer C3A cells [1] (setting [5]); “dose-dependent up-regulation” in the assay with monolayer C3A cells [1] (Examples 1-2, monolayer C3A cells, 24 h, single replicates of pooled triplicate wells, listed as IL-1 β). For the same substance, the “IL-6-induced fibrinogen expression on addition of IL-1β” value in the assay with monolayer C3A cells [1] (Example 3, monolayer C3A cells, IL-1β added to IL-6) was “abrogated”. Also, the “AAT secretion at 54 h” value is “further increased; also recorded: increases with exposure time” with monolayer C3A cells [1] (setting [6]) and “further increased” in the assay on monolayer C3A cells [1] (Examples 1-2, monolayer C3A cells, listed as IL-1 β). Besides, the IL-1Ra secretion result in the assay on monolayer C3A cells [1] (setting [7]) is given as “increased; also recorded: upregulated”; with monolayer C3A cells [1] (setting [9]) it was “did not increase”. Moreover, in the assay on monolayer C3A cells [1] (setting [8]), the TNF-α secretion entry is recorded as “upregulated; also recorded: low, yet elevated”. Also, the IL-10 secretion entry in the assay on monolayer C3A cells [1] (monolayer C3A cells) is reported as “increased above the controls; also recorded: upregulated”. Also, the “IL-10 secretion at 48 hr” value with monolayer C3A cells [1] (monolayer C3A cells) was “further increased”.

Take Interleukin-6 [IL-6]: in the assay with monolayer C3A cells [1] (setting [3]), the IL-10 increase turned out to be 10 fold, the IL-18 increase is 9 fold, the MCP-1 increase is 15 fold and the TNF-β increase came to 12 fold. Moreover, the fibrinogen increase in the assay on monolayer C3A cells [1] (setting [3]) amounted to 6 fold. Also, the AAT secretion entry with monolayer C3A cells [1] (setting [4]) is given as “no apparent effect; also recorded: not affected”. For the same substance, in the assay with monolayer C3A cells [1] (setting [10]), the fibrinogen secretion entry is “increased” and the α-2 macroglobulin secretion entry is recorded as “increased; also recorded: modestly upreguated”. For the same substance, in the assay on monolayer C3A cells [1] (setting [11]), the “Fibrinogen increase vs. control” value is roughly 6 fold, the “IL-18 increase vs. control” value is roughly 9 fold, the “Monocyte chemotactic protein 1 (MCP-1) increase vs. control” value is reported as roughly 15 fold and the “TNF-β increase vs. control” value is listed as roughly 12 fold. In addition, in the assay with monolayer C3A cells [1] (Example 3, monolayer, 24 hr), the “Granulocyte-colony stimulating factor (G-CSF) increase vs. control” value is on record as roughly 50 fold, the “IL-7 increase vs. control” value was roughly 10 fold, the “IL-10 increase vs. control” value was roughly 10 fold and the “Granulocyte-colony stimulating factor (G-CSF) increase with IL-6 vs. control” value is recorded as roughly 300 fold. In addition, in the assay with monolayer C3A cells [1] (setting [12]), the “IL-8 increase vs. control” value is on record as ~2,000 fold, the “Stem cell factor (SCF) increase vs. control” value is roughly 100 fold and the “TNFα increase vs. control” value is recorded as roughly 25 fold. In the assay on monolayer C3A cells [1] (Example 3, monolayer, 48 hr), the “Granulocyte-colony stimulating factor (G-CSF) increase vs. control” value was roughly 75 fold, the “IL-7 increase vs. control” value is listed as roughly 14 fold and the “Granulocyte-colony stimulating factor (G-CSF) increase with IL-6 vs. control” value is given as roughly 500 fold. Further, the AAT secretion result in the assay with monolayer C3A cells [1] (setting [5]) is “dose-dependent upregulation; also recorded: upregulated; also recorded: dose-dependent up-regulation”. Further, the “AAT secretion at 54 h” value with monolayer C3A cells [1] (setting [6]) is “further increased; also recorded: increases with exposure time”. In addition, the TNF-α secretion result in the assay on monolayer C3A cells [1] (setting [8]) was “upregulated; also recorded: low, yet elevated”. In addition, in the assay with monolayer C3A cells [1] (monolayer C3A cells), the IL-10 secretion entry was “increased above the controls; also recorded: upregulated” and the “IL-10 secretion at 48 hr” value was “further increased”. The IL-1Ra secretion result with monolayer C3A cells [1] (setting [9]) is on record as “did not increase”.

Turning to TNF-α, the “IL-1Ra secretion at the highest dose” value with monolayer C3A cells [1] (FIG. 18 experiment, TNF-α 100 ng/mL) is listed as “observed decrease”. Further, the IL-1Ra secretion entry in the assay with monolayer C3A cells [1] (setting [7]) is “did not increase; also recorded: not TNF-α alone”. Besides, the APP expression result in the assay on monolayer C3A cells [1] (TNF-α, except when dosed 10,000-fold higher than measured in culture) is “did not significantly impact”.

As for lipopolysaccharide [LPS], the IL-1Ra secretion entry with monolayer C3A cells [2] (LPS 0.01, 0.1, 1, 10 EU/mL) is on record as “increased; also recorded: upregulated”. Moreover, the AAT levels entry with monolayer C3A cells [2] (LPS 0.01-10 EU/mL, higher concentrations = 1 and 10 EU/mL) is reported as “upregulated; also recorded: increased only at higher concentrations”. For the same substance, the IL-1Ra secretion increase result in the assay with monolayer C3A cells [2] (LPS at all concentrations evaluated (0.01, 0.1, 1, and 10 EU/mL)) is on record as “approximately 2 fold”.
